What all share (assay type): binding, sheep
Holding throughout (settings): Cross-reactants at 100 ng/ml, 1000ng/ml, single level of cross reactants

Experiment [1] relates to Antibody to Immunogen III. As to the method: (§1) The wells of an enhanced binding 96 well polystyrene microtiter plate were coated with IgG fraction of antiserum raised to Immunogen VI, diluted in 10mM Tris, pH8.5 (125µl/well). The appropriate antibody coating dilution was determined using standard ELISA checkerboard techniques. The plate was incubated overnight at 4°C, washed 4 times over 10 minutes with Tris buffered saline containing Tween 20 (TBST) and tapped dry. Standard solutions of RCS-4 were prepared in TBST at 0, 0.3125, 0.625, 1.25, 2.5, 5, 10 and 20ng/ml, and 50µl of each was added to the appropriate wells (see figure 1). 75µl of conjugate (appropriate hapten-HRP) diluted in Tris buffer (pH 7.2) containing EDTA, D-mannitol, sucrose, thimerosal and BSA, was added to each of the wells. The appropriate dilution of conjugate was also determined using standard ELISA checkerboard techniques. The plate was incubated at 25°C for 1 hour. Excess unbound conjugate was removed by washing 6 times over a 10 minute period with TBST. 125µl oftetramethylbenzidine (TMB) substrate solution was added to each well of the plate that was then incubated for 20 minutes in the dark at room temperature. The reaction was terminated by addition of 125µl 0.2M H2SO4 to each well. The absorbance was then measured at 450nm using a microtiter plate reader. The data are inputted to a computer program called 'KC Junior'. It is a 4 parameter fit curve and allow the calculatation of concentrations between the standard runs. This program is used to calculate the IC50s by dividing the 0ng/ml OD value by 2 and obtaining the concentration value from the curve for this OD.
In a similar manner to that described above, the wells of a 96-well microtiter plate were coated with the IgG fraction of the antiserum raised to Immunogens I, II or III. Standard solutions (JWH-250 for Immunogen III) were applied at 0, 0.625, 1.25, 2.5, 5, 10, 20 and 40ng/ml and conjugate was employed as detection reagent.
(§2) The data set our in Tables 3 and 4 are generated using antibodies raised against the indicated Immunogens in a competitive binding assay with the indicated tracers, using the indicated standards: Table 2
(§3) In order to determine the specificity of the competitive ELISAs, standard solutions of a range of structurally similar synthetic cannabinoids and their metabolites were prepared in TBST. Using the calibration curves generated and employing a single level of cross reactants, these were used to determine the cross-reactivity of each immunoassay with these substances. Table 4: Cross reactivity of the competitive ELISAs for synthetic cannabinoids and their metabolites

A further experiment concerns Antibody to Immunogen V. As to the method:
as §1
In a similar manner to that described above, the wells of a 96-well microtiter plate were coated with the IgG fraction of the antiserum raised to Immunogens IV, V, VII or VIII. Standard solutions (RCS-8 for Immunogen V) were prepared in TBST at 0, 1.25, 2.5, 5, 10, 20, 40 and 80ng/ml and conjugate was employed as detection reagent.
as §2, §3

A further experiment relates to Antibody to Immunogen VI. As to the method:
as §1, §2, §3

Setting [2] is: listed as JWH-164 (JWH-081 7-methoxynaphthyl isomer).

Data on 17 compounds can be found in EP2698384A1, “Detection of synthetic cannabinoids” (priority 2012, dated 2014).

SMILES strings stand for the structures. Where two headings read alike, the source gives them in different places.

As for `CCCCCn1cc(C(=O)c2cccc3ccc(OC)cc23)c2ccccc21` [JWH-081 7-methoxynaphthyl isomer (JWH-164)], the “%B/B0” value in experiment [1] is recorded as 75.18%; in experiment [1] (setting [2]), 72.63%; in the experiment with Antibody to Immunogen V, 87.25%; in the experiment with Antibody to Immunogen V (setting [2]), 82.81%; with Antibody to Immunogen VI, 92.27%; with Antibody to Immunogen VI (setting [2]), 89.29%.

Take `O=C(O)CCCCn1cc(C(=O)c2cccc3ccccc23)c2ccccc21` [JWH-018 N-pentanoic acid metabolite]: the “%B/B0” value is reported as 100.98% in experiment [1], 72.42% in the experiment on Antibody to Immunogen V and 65.90% in the experiment on Antibody to Immunogen VI.

For the compound `O=C(c1cccc2ccccc12)c1c[nH]c2ccccc12` [N-desalkyl JWH-018: LK1012 10CD194], the “%B/B0” value in experiment [1] is on record as 99.73%; with Antibody to Immunogen V, 81.80%; in the experiment on Antibody to Immunogen VI, 87.49%.

`CCCC(C)(C)c1ccc2c(c1)OC(C)(C)[C@@H]1CC=C(C)C[C@@H]21` [JWH-133]: the “%B/B0” value was found to be 97.40% in experiment [1], 90.40% with Antibody to Immunogen V and 93.73% in the experiment with Antibody to Immunogen VI.

In the case of `CCCCCCC(C)(C)c1cc(OC)c([C@@H]2C=C(CO)[C@@H]3C[C@H]2C3(C)C)c(OC)c1` [HU-308], the results for the “%B/B0” value (in experiment [1]; with Antibody to Immunogen V; with Antibody to Immunogen VI) were 96.26%, 71.33% and 97.34%, respectively.

Consider `CCCCn1cc(C(=O)c2cccc3ccccc23)c2c(O)cccc21`, for which the “%B/B0” value came to 84.57% in experiment [1], 76.09% with Antibody to Immunogen V and 84.39% with Antibody to Immunogen VI.

As for `CN1CCCCC1Cn1cc(C(=O)c2ccccc2I)c2ccccc21` (stereo not drawn) [AM-223], the “%B/B0” value was 95.28% in experiment [1], 54.35% in the experiment on Antibody to Immunogen V and 79.16% with Antibody to Immunogen VI.

Consider `O=C(c1ccc(Cl)c2ccccc12)c1cn(CCCCCO)c2ccccc12` [JWH-398 N-(5-hydroxypentyl) metabo lite], for which the entries for the “%B/B0” value (in experiment [1]; in the experiment on Antibody to Immunogen V; with Antibody to Immunogen VI) were 76.01%, 55.87% and 69.24%, respectively.

On to `O=C(c1ccc2ccccc2c1)c1cn(CCN2CCOCC2)c2ccccc12` [JWH-200 2'-naphthyl isomer], for which the “%B/B0” value in experiment [1] was found to be 99.13%; in the experiment with Antibody to Immunogen V, 75.36%; with Antibody to Immunogen VI it was 20.66%.

As to `CCCCCn1cc(C(=O)c2cccc3ccc(CC)cc23)c2ccccc21` [JWH-210 7-ethylnaphthyl isomer or JWH-234], the “%B/B0” value in experiment [1] was 73.32%; in the experiment on Antibody to Immunogen V, 85.10%; with Antibody to Immunogen VI it was 87.07%.

Consider `CCCCCn1cc(C(=O)c2c(C)ccc3ccccc23)c2ccccc21` [JWH 122 2-methylnaphthyl isomer], for which the entries for the “%B/B0” value (in experiment [1]; in the experiment with Antibody to Immunogen V; in the experiment on Antibody to Immunogen VI) were 80.25%, 83.38% and 90.59%, respectively.

Regarding `CCCCn1c(C)c(C(=O)c2cccc3ccccc23)c2ccccc21` [JWH-016], the “%B/B0” value is 82.93% in experiment [1], 69.38% with Antibody to Immunogen V and 80.10% in the experiment with Antibody to Immunogen VI.

Consider `CCCCCn1cc(C(=O)c2ccccc2OC)c2ccccc21` [RCS-4 2-methoxy isomer], for which the “%B/B0” value in experiment [1] was determined as 64.43%; with Antibody to Immunogen V, 68.38%; in the experiment with Antibody to Immunogen VI, 81.06%.

Turning to `O=C(c1cccc2ccccc12)c1cn(CCCCCF)c2ccccc12` [AM-2201], the “%B/B0” value in experiment [1] is reported as 67.95%; in the experiment with Antibody to Immunogen V, 76.07%; with Antibody to Immunogen VI it was 76.96%.

In the case of `CCCCCn1cc(C(=O)c2cccc3cc(C)ccc23)c2ccccc21` [JWH 122 6-methylnaphthyl isomer], the figures for the “%B/B0” value (in experiment [1]; with Antibody to Immunogen V; in the experiment on Antibody to Immunogen VI) were 73.75%, 77.08% and 84.77%, respectively.

In the case of `CCCCCn1cc(C(=O)Cc2ccc(OC)cc2)c2ccccc21` [JWH-201], the “%B/B0” value amounted to 27.93% in experiment [1], 68.62% in the experiment on Antibody to Immunogen V and 69.32% in the experiment on Antibody to Immunogen VI.

In the case of `CCCCCCC(C)(C)c1cc(O)c2c(c1)OC(C)(C)[C@H]1CC=C(CO)C[C@H]21` [HU-211 (Dexanabinol), Dexanabinol], the entries for the “%B/B0” value (in experiment [1]; with Antibody to Immunogen V; with Antibody to Immunogen VI) were 95.96%, 71.68% and 98.97%, respectively.
